Test results reported in US20260274876A1, “3-PYRROLIDINE-INDOLE DIMERS AS SEROTONERGIC AGENTS USEFUL FOR THE TREATMENT OF DISORDERS RELATED THERETO” (MINDSET PHARMA INC., priority 2022, published 2026).

Columns and labels:
Plasma stability, human = format: in vitro ADME
Experimental: (§1) • a. […] The final concentration of organic solvents was 0.5%. The assay was performed in duplicated. • b.
(§2) All calculations were carried out using Microsoft Excel.

Plasma stability, rat = format: in vitro ADME
Experimental: as §1, §2

## [2H]C([2H])(c1c[nH]c2cccc(OC(=O)CCCC(=O)Oc3cccc4[nH]cc(C([2H])([2H])[C@H]5CCCN5C([2H])([2H])[2H])c34)c12)[C@H]1CCCN1C([2H])([2H])[2H] [Compound I-22, bis(3-(((R)-1-(methyl-d3)pyrrolidin-2-yl)methyl-d2)-1H-indol-4-yl) glutarate]
Plasma stability, human
  Remaining Percentage (%) 0 min: 100.00%
  Remaining Percentage (%) 30 min: 0.00%
  Remaining Percentage (%) 60 min: 0.00%
  Remaining Percentage (%) 120 min: 0.00%
  Remaining Percentage (%) 180 min: 0.00%
  Remaining Percentage (%) 240 min: 0.00%
Plasma stability, rat
  Remaining Percentage (%) 0 min: 100.00%
  Remaining Percentage (%) 30 min: 0.00%
  Remaining Percentage (%) 60 min: 0.00%
  Remaining Percentage (%) 120 min: 0.00%
  Remaining Percentage (%) 180 min: 0.00%
  Remaining Percentage (%) 240 min: 0.00%

## CN1CCC[C@@H]1Cc1c[nH]c2cccc(OC(=O)CCCC(=O)Oc3cccc4[nH]cc(C[C@H]5CCCN5C)c34)c12 [Compound I-13, Bis(3-(((R)-1-methylpyrrolidin-2-yl)methyl)-1H-indol-4-yl) glutarate]
Plasma stability, human
  Remaining Percentage (%) 0 min: 100.00%
  Remaining Percentage (%) 30 min: 0.00%
  Remaining Percentage (%) 60 min: 0.00%
  Remaining Percentage (%) 120 min: 0.00%
  Remaining Percentage (%) 180 min: 0.00%
  Remaining Percentage (%) 240 min: 0.00%
Plasma stability, rat
  Remaining Percentage (%) 0 min: 100.00%
  Remaining Percentage (%) 30 min: 0.00%
  Remaining Percentage (%) 60 min: 0.00%
  Remaining Percentage (%) 120 min: 0.00%
  Remaining Percentage (%) 180 min: 0.00%
  Remaining Percentage (%) 240 min: 0.00%
